Data: patent US8835644B2, “Broad spectrum benzothiophene-nitrothiazolide and other antimicrobials” (University of Virginia Patent Foundation, priority 2009, dated 2014)
≈ marks a conversion by molar mass, not a printed value. Where a name gives a salt, the structure may show the parent alone. Read-outs that look alike come from different tables or passages of the source.

Columns and labels:
H. pylori = assay: MIC testing by broth dilution, H. pylori; assay type: cell-based, Helicobacter pylori; details: 24 h, read-out: MIC (μM) H. pylori
Outline: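 Helicobacter pylori was tested using a standard broth dilution method in 96 well microplates, each well holding a standard dilution of the organism in 100 microliters of Brain Heart Infusion. Compounds started at 32 μg/ml in 200 microliters in the first well and were serially diluted from 32 to 0.06. Wells were read visually at 24 h, and the MIC was the well with no growth.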

C. jejuni = assay: MIC testing by broth dilution, C. jejuni; assay type: cell-based, Campylobacter jejuni; details: 24 h, read-out: MIC (μM) C. jejuni
Outline: (§1)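 Values are broth-dilution MICs, defined as the well showing no growth on visual reading after 24 h; the tested range was 32 to 0.06 μg/ml, in organism-specific media (LB, Trypticase Soy, Brain Heart Infusion). The C. difficile entries come instead from anaerobic Kirby-Bauer disk zones, normalised to NTZ.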

MRSA = assay: MIC testing by broth dilution, MRSA; assay type: cell-based, Staphylococcus aureus; details: 24 h, read-out: MIC (μM) MRSA
Outline: as §1

S. epidermidis = assay: MIC testing by broth dilution, S. epidermidis plank; assay type: cell-based, Staphylococcus epidermidis; details: 24 h, read-out: MIC (μM) S. epidermidis Plank
Outline: as §1

S. epidermidis biofilm = S. epidermidis biofilm assay (activity tables); assay type: cell-based, Staphylococcus epidermidis
Protocol: Staphylococcal strains were cultured overnight in TSB at 37° C. with shaking, diluted in fresh medium to an OD600 of 0.01 and 200 W was dispensed into sterile flat bottom polystyrene 96 well microtiter plates (Costar 3596, Corning Inc.). […] Each compound and dilution was tested in triplicate. The plates were incubated overnight at 37° C. in a humidified incubator, without shaking and both growth and biofilm accumulation were determined at 16 h.
Following recording of turbidities, the culture medium was aspirated and the wells were washed three times with distilled water, blotted on paper towels, and fixed with 75% ethanol for 10 minutes.
To visualize biofilm material, 0.5% crystal violet was added to each well and after 5 minutes was removed and the wells washed three times with distilled water. Plates were read using a microplate reader at a wavelength of 570 nm. The dye was then extracted by adding 200 W of 95% ethanol, and the absorbance was read again at 570 nm. All assays were performed in triplicate and the mean and standard deviation determined. […]
(§2) Representative compounds of the invention were tested in a series of assays against a series of organisms as described above. […] The organisms tested include, C. difficile, H. pylori, C. jejuni, MRSA, S. epidermidis, and E. coli. S. epidermidis and E. coli were tested in the plank and biofilm assay. A disk diffusion assay was also used for C. difficile. Direct PFOR enzyme assays were also performed. All analogues and derivatives were not tested on every organism in every type of assay (the “-” in each table means that it was not tested).

E. coli = assay: MIC testing by broth dilution, E. coli plank; assay type: cell-based, Escherichia coli; details: 24 h, read-out: MIC (μM) E. coli Plank
Outline: as §1

E. coli biofilm = E. coli biofilm assay (activity tables); assay type: cell-based, Escherichia coli; details: read-out: MIC (μM) E. coli Biofilm
Protocol: A quantitative biofilm assay was used to determine the effect of NTZ on biofilm formation (41). Strain 042 was grown overnight at 37° C. with shaking and inoculated 1:100 in 200 μl culture medium in Costar 96-well, flat-bottom, polystyrene microtiter plates containing appropriate concentrations of NTZ. Plates were incubated statically at 37° C. in a humidified incubator. At 24 h, bacterial growth was measured by either transferring […] aliquots to another microtiter plate to determine turbidity or by diluting 100 μl aliquots 1:100 in 9.9 ml PBS for quantitative plate counts on LB medium. Bacterial counts in triplicate are reported as cfu/ml. Biofilm was visualized following staining with 0.5% crystal violet (41) and the absorbance was read at 570 nm using a microplate reader (Molecular Dynamics). All experiments were in triplicate and reported as mean and standard deviation.
A standard broth dilution protocol was used in 96 well microplates containing a standard dilution of the microorganism to be tested in 100 microliters of the appropriate medium. Appropriate medium: E. coli, LB medium; Staphylococcus strains, Trypticase Soy; and for H. pylori and C. jejuni, Brain Heart Infusion. The compounds to be tested were set at 32 μg/ml in 200 microliters in well one and then serially diluted to provide a range from 32 to 0.06. The wells were scored visually at 24 h. The well where there was no growth was recorded as the MIC. Clostridium difficile was tested by agar diffusion and disk diffusion (Kirby Bower) methods under anaerobic conditions on Wilkins Chalgrin agar. In these assays, zone of inhibited growth was measured and compared by relative ratio to the zone recorded for NTZ.
as §2

[1] = broth dilution, Brain Heart Infusion

Compound	MIC (H. pylori; [1]) [µM]	MIC (C. jejuni; [1]) [µM]	MIC (MRSA; broth dilution, Trypticase Soy) [µM]	MIC (S. epidermidis; broth dilution, Trypticase Soy) [µM]	MIC (μM) S. epidermidis Biofilm (S. epidermidis biofilm) [µM]	MIC (E. coli; broth dilution, LB medium) [µM]	MIC (E. coli biofilm; biofilm) [µM]	MIC (H. pylori; Helicobacter pylori) [µM]	MIC (C. jejuni; Campylobacter jejuni) [µM]	MIC (MRSA; Staphylococcus aureus, MRSA) [µM]	MIC (S. epidermidis; Staphylococcus epidermidis) [µM]	MIC (E. coli; Escherichia coli) [µM]	MIC (E. coli biofilm; Escherichia coli) [µM]
Cl.N[C@H](C(=O)Nc1ncc([N+](=O)[O-])s1)c1ccccc1 [VPC16a1027]	76.3	38.1	101.7	101.7	101.7	101.7	25.4						
N[C@@H](Cc1ccccc1)C(=O)Nc1ncc([N+](=O)[O-])s1 [VPC16a1028, (S)-2-Amino-N-(5-nitrothiazol-2-yl)-3-phenylpropanamide hydrochloride]					97.3			18.3	36.5	97.3	97.3	97.3	48.7
NCCCC[C@H](N)C(=O)Nc1ncc([N+](=O)[O-])s1 [VPC16a1032]	69.3 (≈ 18.9 µg/mL)	92.4 (≈ 25.3 µg/mL)	92.4 (≈ 25.3 µg/mL)	92.4 (≈ 25.3 µg/mL)	92.4 (≈ 25.3 µg/mL)	92.4 (≈ 25.3 µg/mL)	0.1 (≈ 0.0273 µg/mL)						
CC(=O)Nc1ncc([N+](=O)[O-])s1 [VPC16a1033]	3.5 (≈ 0.655 µg/mL)	14.0 (≈ 2.62 µg/mL)	171.0 (≈ 32 µg/mL)	21.4 (≈ 4.01 µg/mL)	21.4 (≈ 4.01 µg/mL)	42.7 (≈ 7.99 µg/mL)	42.7 (≈ 7.99 µg/mL)						
CCCCCCCCCC(=O)Nc1ncc([N+](=O)[O-])s1 [VPC16b1043]	1.2 (≈ 0.359 µg/mL)	3.9 (≈ 1.17 µg/mL)	106.9 (≈ 32 µg/mL)	106.9 (≈ 32 µg/mL)	1.7 (≈ 0.509 µg/mL)	106.9 (≈ 32 µg/mL)	106.9 (≈ 32 µg/mL)						
CCCC(=O)Nc1ncc([N+](=O)[O-])s1 [VPC16b1045]	0.5 (≈ 0.108 µg/mL)	2.1 (≈ 0.452 µg/mL)	148.7 (≈ 32 µg/mL)	37.2 (≈ 8.01 µg/mL)	4.6 (≈ 0.99 µg/mL)	148.7 (≈ 32 µg/mL)	148.7 (≈ 32 µg/mL)						
CC(C)(C(=O)Nc1ncc([N+](=O)[O-])s1)C(=O)Nc1ncc([N+](=O)[O-])s1 [VPC16b1048]	20.7 (≈ 8 µg/mL)	82.8 (≈ 32 µg/mL)	82.8 (≈ 32 µg/mL)	82.8 (≈ 32 µg/mL)	41.4 (≈ 16 µg/mL)	82.8 (≈ 32 µg/mL)	82.8 (≈ 32 µg/mL)						
CC(=O)Oc1cc(C#N)ccc1C(=O)Nc1ncc([N+](=O)[O-])s1 [VPC161076]	24.1 (≈ 8.01 µg/mL)	96.3 (≈ 32 µg/mL)	96.3 (≈ 32 µg/mL)	96.3 (≈ 32 µg/mL)	48.2 (≈ 16 µg/mL)	96.3 (≈ 32 µg/mL)	96.3 (≈ 32 µg/mL)						
O=C(Nc1ncc([N+](=O)[O-])s1)c1cccc([N+](=O)[O-])c1O [VPC161090]	19.3 (≈ 5.99 µg/mL)	103.1 (≈ 32 µg/mL)	103.1 (≈ 32 µg/mL)	77.4 (≈ 24 µg/mL)	6.4 (≈ 1.99 µg/mL)	103.1 (≈ 32 µg/mL)	103.1 (≈ 32 µg/mL)						
O=C(Nc1ncc([N+](=O)[O-])s1)c1ccc(F)cc1C(F)(F)F [VPC161127]	3.4 (≈ 1.14 µg/mL)	23.9 (≈ 8.01 µg/mL)	8.9 (≈ 2.98 µg/mL)	23.9 (≈ 8.01 µg/mL)	13.4 (≈ 4.49 µg/mL)	95.5 (≈ 32 µg/mL)	95.5 (≈ 32 µg/mL)						
O=C(Nc1ncc([N+](=O)[O-])s1)c1cccc(F)c1 [VPC161166]	0.9 (≈ 0.241 µg/mL)	11.2 (≈ 2.99 µg/mL)	16.8 (≈ 4.49 µg/mL)	22.5 (≈ 6.01 µg/mL)	59.9 (≈ 16 µg/mL)	119.7 (≈ 32 µg/mL)	59.9 (≈ 16 µg/mL)						
O=C(Nc1ncc([N+](=O)[O-])s1)c1ccc([N+](=O)[O-])cc1 [VPC161170]	1.3 (≈ 0.383 µg/mL)	13.6 (≈ 4 µg/mL)	20.4 (≈ 6 µg/mL)	10.2 (≈ 3 µg/mL)	3.4 (≈ 1 µg/mL)	81.6 (≈ 24 µg/mL)	108.8 (≈ 32 µg/mL)						
COc1ccc(-c2ccc(F)cc2F)cc1C(=O)Nc1ncc([N+](=O)[O-])s1 [VPC161171]	0.8 (≈ 0.313 µg/mL)	40.9 (≈ 16 µg/mL)	81.8 (≈ 32 µg/mL)	81.8 (≈ 32 µg/mL)	81.8 (≈ 32 µg/mL)	81.8 (≈ 32 µg/mL)	81.8 (≈ 32 µg/mL)						
N#Cc1cccc(C(=O)Nc2ncc([N+](=O)[O-])s2)c1 [VPC161173]	4.1 (≈ 1.12 µg/mL)	36.5 (≈ 10 µg/mL)	43.8 (≈ 12 µg/mL)	29.2 (≈ 8.01 µg/mL)	58.3 (≈ 16 µg/mL)	116.7 (≈ 32 µg/mL)	116.7 (≈ 32 µg/mL)						
O=C(Nc1ncc([N+](=O)[O-])s1)c1cccnc1 [VPC161176]	4.0 (≈ 1 µg/mL)	71.9 (≈ 18 µg/mL)	127.9 (≈ 32 µg/mL)	127.9 (≈ 32 µg/mL)	63.9 (≈ 16 µg/mL)	127.9 (≈ 32 µg/mL)	127.9 (≈ 32 µg/mL)						
O=C(Nc1ncc([N+](=O)[O-])s1)c1ccncc1 [VPC161177]	16.0 (≈ 4 µg/mL)	24.0 (≈ 6.01 µg/mL)	127.9 (≈ 32 µg/mL)	127.9 (≈ 32 µg/mL)	127.9 (≈ 32 µg/mL)	127.9 (≈ 32 µg/mL)	127.9 (≈ 32 µg/mL)						
